Laboratory results: US20120010254A1 (priority 2008, published 2012)
Structures can show the parent of a compound that is named as a salt. Where two headings read alike, the source gives them in different places.

Legend:
[1] = target: influenza virus sialidase (N1) (Influenza A virus, UniProt Q9WAA1); assay: biochemical
[2] = system: avian influenza virus H5N1; conditions: literature value, Li et al. ref. 12; read-out: EC50 value against avian influenza virus H5N1; cited from earlier work

influenza virus sialidase (N1), sequence (Q9WAA1 whole entry, looked up): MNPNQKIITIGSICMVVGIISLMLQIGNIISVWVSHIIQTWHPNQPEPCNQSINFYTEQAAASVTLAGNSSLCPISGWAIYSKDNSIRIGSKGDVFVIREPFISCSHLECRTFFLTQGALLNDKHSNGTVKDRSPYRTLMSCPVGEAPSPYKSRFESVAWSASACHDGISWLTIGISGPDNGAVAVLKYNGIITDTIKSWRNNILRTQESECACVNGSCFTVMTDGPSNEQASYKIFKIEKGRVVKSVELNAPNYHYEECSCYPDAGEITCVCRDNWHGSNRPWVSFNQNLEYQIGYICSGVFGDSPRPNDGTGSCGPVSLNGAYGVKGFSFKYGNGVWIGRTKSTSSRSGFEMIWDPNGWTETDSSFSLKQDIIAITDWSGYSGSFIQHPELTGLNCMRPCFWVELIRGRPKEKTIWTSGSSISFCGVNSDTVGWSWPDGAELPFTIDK

4-Acetylamino-3-[4-((17α)-estra-1,3,5(10)-triene-3,17-dihydroxy-17-yl)-[1,2,3]triazol-1-yl]-5-(1-ethyl-propoxy)-cyclohex-1-enecarboxylic acid L-arginine salt [Compound 44]
Ki ([1]; read-out: Ki): 59 µM

CC(=O)N[C@H]1[C@H]([C@H](O)[C@H](O)CO)OC(C(=O)O)=C[C@@H]1N [4-amino-4-deoxy-Neu5Ac2en, reference compound]
Ki ([1]; read-out: Ki): 0.01 µM

CC(=O)N[C@H]1[C@H]([C@H](O)[C@H](O)CO)OC(C(=O)O)=C[C@@H]1NC(=N)N [4-deoxy-4-guanidino-Neu5Ac2en]
EC50 [2]: 2.8 µM

CCC(CC)OC1CC(C(=O)O)=CC(n2cc(CCCO)nn2)C1NC(C)=O (centres unmarked) [Compound 1, 4-Acetylamino-5-(1-ethyl-propoxy)-3-[4-(3-hydroxy-propyl)-[1,2,3]triazol-1-yl]-cyclohex-1-enecarboxylic acid]
Ki [1]: 5 µM

CCC(CC)OC1CC(C(=O)O)=CC(n2cc(C(O)CC)nn2)C1NC(C)=O (centres unmarked) [Compound 2, 4-Acetylamino-5-(1-ethyl-propoxy)-3-[4-(1-hydroxy-propyl)-[1,2,3]triazol-1-yl]-cyclohex-1-enecarboxylic acid]
Ki [1]: 0.7 µM

CCC(CC)OC1CC(C(=O)O)=CC(n2cc(C(C)(C)O)nn2)C1NC(C)=O (centres unmarked) [Compound 3, 4-Acetylamino-5-(1-ethyl-propoxy)-3-[4-(1-hydroxy-1-methyl-ethyl)-[1,2,3]triazol-1-yl]-cyclohex-1-enecarboxylic acid]
Ki [1]: 2 µM

CCC(CC)OC1CC(C(=O)O)=CC(n2cc(C3(O)CCCCC3)nn2)C1NC(C)=O (centres unmarked) [Compound 5, 4-Acetylamino-5-(1-ethyl-propoxy)-3-[4-(1-hydroxy-cyclohexyl)-[1,2,3]triazol-1-yl]-cyclohex-1-enecarboxylic acid]
IC50 [1]: 48 µM | Inhibitory activity in words [1]: less effective as inhibitors

CCC(CC)OC1CC(C(=O)O)=CC(n2cc(C3(O)CCCC3)nn2)C1NC(C)=O (centres unmarked) [Compound 6, 4-Acetylamino-5-(1-ethyl-propoxy)-3-[4-(1-hydroxy-cyclopentyl)-[1,2,3]triazol-1-yl]-cyclohex-1-enecarboxylic acid]
IC50 [1]: 110 µM | Inhibitory activity in words [1]: less effective as inhibitors

CCC(CC)OC1CC(C(=O)O)=CC(N)C1NC(C)=O (centres unmarked) [Compound 38, 4-Acetylamino-3-amino-5-(1-ethyl-propoxy)-cyclohex-1-enecarboxylic acid, reference compound]
Ki [1]: 0.02 µM

CCC(CC)OC1CC(C(=O)O)=CC(NC(=N)N)C1NC(C)=O (centres unmarked) [Compound 39, 4-Acetylamino-5-(1-ethyl-propoxy)-3-guanidino-cyclohex-1-enecarboxylic acid Trifluoroacetate salt]
Ki [1]: 0.0048 µM

CCC(CC)OC1CC(C(=O)O)=CC(n2cc(CCc3ccccc3)nn2)C1NC(C)=O [Compound 43, 4-Acetylamino-5-(1-ethyl-propoxy)-3-(4-phenethyl-[1,2,3]triazol-1-yl)-cyclohex-1-enecarboxylic acid L-arginine salt]
Ki [1]: 12 µM

CCC(O)c1cn([C@H]2C=C(C(=O)O)O[C@@H]([C@H](O)[C@H](O)CO)[C@@H]2NC(C)=O)nn1 (some centres unmarked) [formula (B)]
EC50 [2]: 6.4 µM
